In patent publication US20090149417A1, “Methods and compositions for the treatment of cancer using benzopyrone-type PARP inhibitors” (priority 2007, published 2009):

System: human SW620 colon adenocarcinoma
Experiment: Human SW620 colon adenocarcinoma xenograft model in nude mice
Assay type: in vivo
Protocol: The animals are fed ad libitu water (reverse osmosis, 1 ppm Cl) and NIH 31 Modified and Irradiated Lab Diet® consisting of 18.0% crude protein, 5.0% crude fat, and 5.0% crude fiber. The mice are housed on irradiated ALPHA-dri® bed-o-cobs® Laboratory Animal Bedding in static microisolators on a 12-hour light cycle at 21-22° C. (70-72° F.) and 40-60% humidity. PRC specifically complies with the recommendations of the Guide for Care and Use of Laboratory Animals with respect to restraint, husbandry, surgical procedures, feed and fluid regulation, and veterinary care. […]
The human SW620 colon adenocarcinoma utilized in the present study is maintained in nude mice by serial engraftment. […] Tumors are monitored twice weekly and then daily as their volumes approached 80-120 mm^3. […] Tumor size, in mm3, is calculated from: […]
Tumors are calipered twice weekly for the duration of the study. […] The time to endpoint (TTE) for each mouse is calculated according to the following equation: […]
where TTE is expressed in days, endpoint volume is in mm3, b is the intercept, and m is the slope of the line obtained by linear regression of a log-transformed tumor growth data set. […] The calculated TTE is usually less than the day on which an animal is euthanized for tumor size. […]

O=c1ccc2c(I)c([N+](=O)[O-])ccc2o1 [IIIg, 5-iodo-6-nitro-benzopyrone]
Survival of tumor-bearing animals (biweekly intraperitoneal injection, 50 mg/kg): prolongs survival | Tumor growth (once-daily or twice-weekly administration): inhibits tumor growth
